Source: ChEMBL document CHEMBL1177749, “Tetracyclic chromane derivatives from Rhododendron anthopogonoides” (J Nat Prod, 2010)

Tested on: Mast cell
Assay: Inhibition of compound 48/80-induced histamine release in Wister rat Peritoneal mast cells
Type: functional, cell-based

IC50 [µM]	Structure (SMILES)
63	C/C(=C\CC[C@@]1(C)C=Cc2c(cc(C)c(C(=O)O)c2O)O1)CC(=O)CC(C)C [ANTHOPOGOCHROMENE A]
250	COc1ccc2c(c1)c(CC(=O)O)c(C)n2C(=O)c1ccc(Cl)cc1 [INDOMETHACIN]

Structure (SMILES)	IC50 [µM]
Cc1cc2c(c(O)c1C(=O)O)[C@H]1[C@@H]3[C@@](C)(CCC[C@]3(C)O2)[C@H]1C(=O)CC(C)C [ANTHOPOGOCHROMANE]	114
